Assay results taken from ChEMBL document CHEMBL3632497, “Insights into Structure-Activity Relationships of Bacterial RNA Polymerase Inhibiting Corallopyronin Derivatives” (2015).
≈ marks a conversion by molar mass, not a printed value. Calls of active or inactive are those of the source. The rule behind the calls is not given here.

Key:
Staphylococcus simulans = test: Antibacterial activity against Staphylococcus simulans 22 after 24 hrs; format: functional; conditions: Staphylococcus simulans, 22, 24 h
Bacillus licheniformis [1] = test: Antibacterial activity against Bacillus licheniformis MW3 after 24 hrs; format: functional; conditions: MW3, 24 h
Priestia megaterium = test: Antibacterial activity against Bacillus megaterium; format: functional
Staphylococcus aureus [2] = test: Antibacterial activity against Staphylococcus aureus; format: functional
Mycolicibacterium phlei = test: Antibacterial activity against Mycobacterium phlei after 24 hrs; format: functional
Escherichia coli = test: Antibacterial activity against Escherichia coli; format: functional, organism-based
Wolbachia [3] = test: Antibacterial activity against Wolbachia; format: functional
Bacillus cereus = test: Antibacterial activity against Bacillus cereus after 24 hrs; format: functional
Bacillus licheniformis [4] = test: Antibacterial activity against Bacillus licheniformis DSM13 after 24 hrs; format: functional; conditions: DSM 13 = ATCC 14580, 24 h
[5] = system: Mycolicibacterium smegmatis; test: Antibacterial activity against Mycobacterium smegmatis after 24 hrs; format: functional
Micrococcus luteus = test: Antibacterial activity against Micrococcus luteus ATCC 4698 after 24 hrs; format: functional; conditions: ATCC 4698, 24 h
Staphylococcus aureus [6] = test: Antibacterial activity against Staphylococcus aureus SG511 after 24 hrs; format: functional; conditions: SG511, 24 h
Wolbachia [7] = test: Antibacterial activity against Wolbachia infected in C6/36 cells assessed as decrease in 16s rRNA copies at 0.01, 0.1 and 0.5 microg/ml by qPCR analysis; format: functional, cell-based
Bacillus subtilis = test: Antibacterial activity against Bacillus subtilis 168 after 24 hrs; format: functional; conditions: subsp. subtilis str. 168, 24 h
Wolbachia [8] = test: Antibacterial activity against Wolbachia infected in C6/36 cells assessed as decrease in 16s rRNA copies by qPCR analysis; format: functional, cell-based

| SMILES | MIC (Staphylococcus simulans) | MIC (Bacillus licheniformis [1]) | MIC (Mycolicibacterium phlei) | further results |
| --- | --- | --- | --- | --- |
| C/C=C/C/C=C(/C)[C@@H](CC/C(C)=C/C=C(\C)C(=O)c1c(O)cc([C@H](C)CC/C=C/NC(=O)OC)oc1=O)OC(=O)COC(C)=O | > 64 µg/mL | > 64 µg/mL |  |  |
| CC/C=C/C/C=C(/C)[C@H](O)CC/C(C)=C/C=C(\C)C(=O)c1c(O)cc([C@H](C)CC/C=C/NC(=O)OC)oc1=O |  |  |  | MIC (Priestia megaterium): 1.6 µg/mL (≈ 2.95 µM); MIC (Staphylococcus aureus [2]): 0.4 µg/mL (≈ 0.738 µM) |
| C/C=C/C/C=C(/C)C(O)CC/C(C)=C\C=C(/C)C(=O)c1c(O)cc([C@H](C)CC/C=C/NC(=O)OC)oc1=O (some centres not stated) |  |  |  | MIC (Priestia megaterium): 0.8 µg/mL (≈ 1.52 µM); MIC (Staphylococcus aureus [2]): 0.1 µg/mL (≈ 0.19 µM) |
| C/C=C/C/C=C(/C)C1CCC(C)(C/C=C(\C)C(=O)c2c(O)cc([C@H](C)CC/C=C/NC(=O)OC)oc2=O)O1 (some centres not stated) |  |  |  | MIC (Priestia megaterium): 1.6 µg/mL (≈ 3.03 µM); MIC (Staphylococcus aureus [2]): 0.4 µg/mL (≈ 0.758 µM) |
| C/C=C/C/C=C(/C)[C@@H](CC/C(C)=C/C=C(\C)C(=O)c1c(O)cc([C@H](C)CC/C=C/NC(=O)OC)oc1=O)OC(=O)c1ccccc1 | > 64 µg/mL | 64 µg/mL (≈ 101 µM) | > 64 µg/mL |  |
| CCCCCCCCCCCCC/C=C/[C@@H](O)[C@H](CO)NC(=O)CCCCCCNC(=O)OC |  |  |  | Activity (Priestia megaterium): inactive; Activity (Escherichia coli): inactive; Activity (Wolbachia [3]): inactive |
| C/C=C/C/C=C(/C)[C@@H](CC/C(C)=C/C=C(\C)C(=O)c1c(O)cc([C@H](C)CC/C=C/NC(=O)OC)oc1=O)OC(=O)c1cccs1 | > 64 µg/mL | > 64 µg/mL |  |  |
| C/C=C/C/C=C(/C)[C@@H](CC/C(C)=C/C=C(\C)C(=O)c1c(O)cc([C@H](C)CC/C=C/NC(=O)OC)oc1=O)OC(=O)[C@@](OC)(c1ccccc1)C(F)(F)F | 64 µg/mL (≈ 86 µM) | > 16 µg/mL | > 64 µg/mL |  |
| C/C=C/C/C=C(/C)[C@@H](CC/C(C)=C/C=C(\C)C(=O)c1c(O)cc([C@H](C)CC/C=C/NC(=O)OC)oc1=O)OC(C)=O | 64 µg/mL (≈ 112 µM) | 64 µg/mL (≈ 112 µM) | > 64 µg/mL |  |
| C/C=C/C/C=C(/C)CCC/C(C)=C/C=C(\C)C(=O)c1c(O)cc([C@H](C)CC/C=C/NC(=O)OC)oc1=O | 4 µg/mL (≈ 7.82 µM) |  |  | MIC (Bacillus cereus): 2 µg/mL (≈ 3.91 µM); MIC (Bacillus licheniformis [4]): 4 µg/mL (≈ 7.82 µM); MIC [5]: > 64 µg/mL; MIC (Micrococcus luteus): 4 µg/mL (≈ 7.82 µM); MIC (Staphylococcus aureus [6]): 2 µg/mL (≈ 3.91 µM); inhibition (Wolbachia [7]): Active; MIC (Bacillus subtilis): 32 µg/mL (≈ 62.5 µM) |
| C/C=C/C/C=C(/C)[C@@H](CC/C(C)=C/C=C(\C)C(=O)c1c(O)cc([C@H](C)CC/C=C/NC(=O)OC)oc1=O)OC(=O)c1ccc(F)cc1 | > 64 µg/mL | > 64 µg/mL |  |  |
| C/C=C/C/C=C(\C)C(O)CC/C(C)=C/C=C(\C)C(=O)c1c(O)cc([C@H](C)CC/C=C/NC(=O)OC)oc1=O (some centres not stated) [CORALLOPYRONIN A] | 1 µg/mL (≈ 1.9 µM) | 64 µg/mL (≈ 121 µM) | > 64 µg/mL | MIC (Bacillus cereus): 2 µg/mL (≈ 3.79 µM); MIC (Bacillus licheniformis [4]): 2 µg/mL (≈ 3.79 µM); MIC [5]: > 64 µg/mL; inhibition (Wolbachia [8]): Dose-dependent effect; MIC (Micrococcus luteus): 1 µg/mL (≈ 1.9 µM); MIC (Staphylococcus aureus [6]): 0.5 µg/mL (≈ 0.948 µM); MIC (Bacillus subtilis): 16 µg/mL (≈ 30.3 µM) |
| C/C=C/C/C=C(/C)C(=O)CC/C(C)=C/C=C(\C)C(=O)c1c(O)cc([C@H](C)CC/C=C/NC(=O)OC)oc1=O | 16 µg/mL (≈ 30.4 µM) | 32 µg/mL (≈ 60.9 µM) |  |  |
| C/C=C/C/C=C(/C)[C@@H](CC/C(C)=C/C=C(\C)C(=O)c1c(O)cc([C@H](C)CC/C=C/NC(=O)OC)oc1=O)OC(=O)CCCCCCCCC | > 64 µg/mL | 64 µg/mL (≈ 93.9 µM) |  |  |
| C/C=C/C/C=C(/C)[C@@H](CC/C(C)=C/C=C(\C)C(=O)c1c(O)cc([C@H](C)CC/C=C/NC(=O)OC)oc1=O)OC(=O)[C@](OC)(c1ccccc1)C(F)(F)F | 32 µg/mL (≈ 43 µM) | > 16 µg/mL | > 64 µg/mL |  |
| C/C=C/C/C=C(/C)[C@@H](CC/C(C)=C/C=C(\C)C(=O)c1c(O)cc([C@H](C)CC/C=C/NC(=O)OC)oc1=O)OC(=O)c1ccco1 | 64 µg/mL (≈ 103 µM) | 64 µg/mL (≈ 103 µM) | > 64 µg/mL |  |
